# Patent US20110182850A1, “ORGANIC COMPOUNDS AND THEIR USES” (priority 2009, published 2011)
# Target: T1, HCV NS3-4A serine protease (full-length NS3-4A protein, genotype 1a, strain HCV-1) (Hepatitis C virus genotype 1a, UniProt P26664)
# T1 construct: using the full-length NS3-4A protein (genotype 1a, strain HCV-1)
# Experiment: HCV NS3-4A protease assay
# Assay type: biochemical
# Conditions: Protease IC50
# Method: The inhibitory activity of certain compounds of Table A against HCV NS3-4A serine protease is determined in a homogenous assay using the full-length NS3-4A protein (genotype 1a, strain HCV-1) and a commercially available internally-quenched fluorogenic peptide substrate as described by Taliani, M., et al. 1996 Anal. Biochem. 240:60-67, which is incorporated by reference in its entirety.
# T1 sequence (P26664 1658-1711): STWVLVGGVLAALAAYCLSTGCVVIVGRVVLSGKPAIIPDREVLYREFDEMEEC
# T1 sequence (P26664 1027-1657): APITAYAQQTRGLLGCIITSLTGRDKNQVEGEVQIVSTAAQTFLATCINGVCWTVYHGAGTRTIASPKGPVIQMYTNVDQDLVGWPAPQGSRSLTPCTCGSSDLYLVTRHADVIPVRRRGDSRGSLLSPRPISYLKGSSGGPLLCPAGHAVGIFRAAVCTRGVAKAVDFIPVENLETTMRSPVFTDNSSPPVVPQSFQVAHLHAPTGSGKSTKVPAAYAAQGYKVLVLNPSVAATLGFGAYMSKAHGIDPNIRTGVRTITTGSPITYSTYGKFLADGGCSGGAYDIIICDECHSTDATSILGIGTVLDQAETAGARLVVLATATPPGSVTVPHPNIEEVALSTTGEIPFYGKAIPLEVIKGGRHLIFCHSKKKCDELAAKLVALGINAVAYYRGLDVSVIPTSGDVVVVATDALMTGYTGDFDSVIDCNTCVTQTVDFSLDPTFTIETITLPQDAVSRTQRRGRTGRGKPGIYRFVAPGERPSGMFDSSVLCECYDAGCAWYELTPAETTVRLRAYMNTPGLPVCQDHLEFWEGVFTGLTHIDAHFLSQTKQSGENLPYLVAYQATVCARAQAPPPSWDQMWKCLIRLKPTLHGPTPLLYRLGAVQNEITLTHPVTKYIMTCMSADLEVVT
row,Compound,IC50 [nM]
1,"CCCC(NC(=O)[C@@H]1C[C@@]2(CN1C(=O)C(NC(=O)[C@@H](NC(=O)C(C)(C)N1CCCC1)C1CCCCC1)C(C)(C)C)C(C)(C)C21CCC1)C(=O)NS(=O)(=O)C1CC1 (stereo partly drawn) [Compound 2, (5R,8S)-7-[2-({(2S)-2-cyclohexyl-2-[(2-methyl-2-pyrrolidin-1-ylpropanoyl)amino]acetyl}amino)-3,3-dimethylbutanoyl]-N-{1-[(cyclopropylsulfonyl)carba-moyl]butyl}-10,10-dimethyl-7-azadispiro[3.0.4.1]decane-8-carboxamide]",2250
2,"CC(C)(C)[C@H](NC(=O)[C@@H](NC(=O)C(C)(C)N1CCCC1)C1CCCCC1)C(=O)N1C[C@]2(C[C@H]1C(=O)NC1(C(=O)NS(=O)(=O)C3CC3)CC1)C(C)(C)C21CCC1 [Compound 3, (5R,8S)-7-[(2S)-2-({(2S)-2-cyclohexyl-2-[(2-methyl-2-pyrrolidin-1-ylpropanoyl)amino]acetyl}amino)-3,3-dimethylbutanoyl]-N-{1-[(cyclopropylsulfonyl)carba-moyl]cyclopropyl}-10,10-dimethyl-7-azadispiro[3.0.4.1]decane-8-carboxamide]",45
3,"C=C[C@@H]1C[C@]1(NC(=O)[C@@H]1C[C@@]2(CN1C(=O)[C@@H](NC(=O)[C@@H](NC(=O)[C@@H]1CCCCN1C(C)C)C(C)(C)C)C(C)(C)C)C(C)(C)C21CCC1)C(=O)NS(=O)(=O)c1cccc2cc[nH]c12 [Compound 4, (5R,8S)-N-{(1R,2S)-1-[(1H-indol-7-ylsulfonyl)carbamoyl]-2-vinylcyclopropyl}-7-[(2S)-2-{[(2S)-2-({[(2S)-1-isopropylpiperidin-2-yl]carbonyl}amino)-3,3-dimethylbutanoyl]amino}-3,3-dimethylbutanoyl]-10,10-dimethyl-7-azadispiro[3.0.4.1]decane-8-carboxamide]",0.8
4,"C=C[C@@H]1C[C@]1(NC(=O)[C@@H]1C[C@@]2(CN1C(=O)C(NC(=O)[C@@H](NC(=O)OC(C)(C)C)C(C)(C)C)C(C)(C)C)C(C)(C)C21CCC1)C(=O)NS(=O)(=O)c1ccccc1 (stereo partly drawn) [Compound 5, tert-butyl {(1S)-1-[(1-{[(5R,8S)-10,10-dimethyl-8-({(1R,2S)-1-[(phenylsulfonyl)carbamoyl]-2-vinylcyclopropyl}carbamoyl)-7-azadispiro[3.0.4.1]dec-7-yl]carbonyl}-2,2-dimethylpropyl)carbamoyl]-2,2-dimethylpropyl}carbamate]",1950
5,"C=C[C@@H]1C[C@]1(NC(=O)[C@@H]1C[C@@]2(CN1C(=O)[C@@H](NC(=O)[C@@H](NC(=O)OC(C)(C)C)C(C)(C)C)C(C)(C)C)C(C)(C)C21CCC1)C(=O)NS(=O)(=O)C1CC1 [Compound 6, tert-butyl [(1S)-1-{[(1S)-1-{[(5R,8S)-8-({(1R,2S)-1-[(cyclopropylsulfonyl)carba-moyl]-2-vinylcyclopropyl}carbamoyl)-10,10-dimethyl-7-azadispiro[3.0.4.1]dec-7-yl]carbonyl}-2,2-dimethylpropyl]carbamoyl}-2,2-dimethylpropyl]carbamate]",80
6,"C=C[C@@H]1C[C@]1(NC(=O)[C@@H]1C[C@@]2(CN1C(=O)[C@@H](NC(=O)[C@@H](NC(=O)[C@@H]1CCCN(CCF)C1)C(C)(C)C)C(C)(C)C)C(C)(C)C21CCC1)C(=O)NS(=O)(=O)C1CC1 [Compound 8, (5R,8S)-N-{(1R,2S)-1-[(cyclopropylsulfonyl)carba-moyl]-2-vinylcyclopropyl}-7-[(2S)-2-{[(2S)-2-({[(3R)-1-(2-fluoroethyl)piperidin-3-yl]carbonyl}amino)-3,3-dimethylbutanoyl]amino}-3,3-dimethylbutanoyl]-10,10-dimethyl-7-azadispiro[3.0.4.1]decane-8-carboxamide]",25
7,"C=C[C@@H]1C[C@]1(NC(=O)[C@@H]1C[C@@]2(CN1C(=O)[C@@H](NC(=O)[C@@H](NC(=O)[C@@H]1CCCCN1CCF)C(C)(C)C)C(C)(C)C)C(C)(C)C21CCC1)C(=O)NS(=O)(=O)C1CC1 [Compound 9, (5R,8S)-N-{(1R,2S)-1-[(cyclopropylsulfonyl)carba-moyl]-2-vinylcyclopropyl}-7-[(2S)-2-{[(2S)-2-({[(2S)-1-(2-fluoroethyl)piperidin-2-yl]carbonyl}amino)-3,3-dimethylbutanoyl]amino}-3,3-dimethylbutanoyl]-10,10-dimethyl-7-azadispiro[3.0.4.1]decane-8-carboxamide]",8

# Same assay, conditions: read-out: Protease IC50
row,Compound,IC50 [nM]
1,"C=C[C@@H]1C[C@]1(NC(=O)[C@@H]1C[C@@]2(CN1C(=O)[C@@H](NC(=O)OC(C)(C)C)C(C)C)C(C)(C)C21CCC1)C(=O)NS(=O)(=O)C1CC1 [Compound 1, tert-butyl [(1S)-1-{[(5R,8S)-8-({(1R,2S)-1-[(cyclopropylsulfonyl)carba-moyl]-2-vinylcyclopropyl}carbamoyl)-10,10-dimethyl-7-azadispiro[3.0.4.1]dec-7-yl]carbonyl}-2-methylpropyl]carbamate]",100
2,"C=C[C@@H]1C[C@]1(NC(=O)[C@@H]1C[C@@]2(CN1C(=O)[C@@H](NC(=O)CC1CCCCC1)C(C)(C)C)C(C)(C)C21CCC1)C(=O)NS(=O)(=O)C1CC1 [Compound 7, (5R,8S)-7-{(2S)-2-[(cyclohexylacetyl)amino]-3,3-dimethylbutanoyl}-N-{(1R,2S)-1-[(cyclopropylsulfonyl)carba-moyl]-2-vinylcyclopropyl}-10,10-dimethyl-7-azadispiro[3.0.4.1]decane-8-carboxamide]",100
3,"C=C[C@@H]1C[C@]1(NC(=O)[C@@H]1C[C@@]2(CN1C(=O)[C@@H](NC(=O)OC1CCCC1)C(C)(C)C)C(C)(C)C21CCC1)C(=O)NS(=O)(=O)C1CC1 [Compound 10, cyclopentyl [(1S)-1-{[(5R,8S)-8-({(1R,2S)-1-[(cyclopropylsulfonyl)carba-moyl]-2-vinylcyclopropyl}carbamoyl)-10,10-dimethyl-7-azadispiro[3.0.4.1]dec-7-yl]carbonyl}-2,2-dimethylpropyl]carbamate]",25
4,"C=C[C@@H]1C[C@]1(NC(=O)[C@@H]1C[C@@]2(CN1C(=O)[C@@H](NC(=O)c1ccc3cnccc3n1)C(C)(C)C)C(C)(C)C21CCC1)C(=O)NS(=O)(=O)C1CC1 [Compound 11, (5R,8S)-N-{(1R,2S)-1-[(cyclopropylsulfonyl)carba-moyl]-2-vinylcyclopropyl}-7-{(2S)-3,3-dimethyl-2-[(1,6-naphthyridin-2-ylcarbonyl)amino]butanoyl}-10,10-dimethyl-7-azadispiro[3.0.4.1]decane-8-carboxamide]",200
5,"C=C[C@@H]1C[C@]1(NC(=O)[C@@H]1C[C@@]2(CN1C(=O)[C@@H](NCc1nc3ccccc3n1C)C(C)(C)C)C(C)(C)C21CCC1)C(=O)NS(=O)(=O)C1CC1 [Compound 12, (5R,8S)-N-{(1R,2S)-1-[(cyclopropylsulfonyl)carba-moyl]-2-vinylcyclopropyl}-7-[(2S)-3,3-dimethyl-2-{[(1-methyl-1H-benzimidazol-2-yl)methyl]amino}butanoyl]-10,10-dimethyl-7-azadispiro[3.0.4.1]decane-8-carboxamide]",400
6,"C=C[C@@H]1C[C@]1(NC(=O)[C@@H]1C[C@@]2(CN1C(=O)[C@@H](NS(=O)(=O)c1nccn1C)C(C)(C)C)C(C)(C)C21CCC1)C(=O)NS(=O)(=O)C1CC1 [Compound 13, (5R,8S)-N-{(1R,2S)-1-[(cyclopropylsulfonyl)carba-moyl]-2-vinylcyclopropyl}-7-[(2S)-3,3-dimethyl-2-{[(1-methyl-1H-imidazol-2-yl)sulfonyl]amino}butanoyl]-10,10-dimethyl-7-azadispiro[3.0.4.1]decane-8-carboxamide]",250
